Reference: US11523995B2, “Compositions and methods for ablating niche cells in testis and other epithelial cells and methods relating thereto” (Duke University, priority 2017, dated 2022)
Entries after “also recorded” stand apart in the source; their conditions may differ.

Key:
Sertoli cells = assay: Adult Sertoli cell depletion in vivo (injection into rete testis); design: species or system mouse
Experimental: Host mice were anesthetized. A glass needle was back-loaded with the drug and 0.02% bromophenol blue to track the success of the injection and extent of delivery into the tissue. The mixture was injected into the rete-testis.
Adult mouse testis and canine testis tissues were fixed in 4% (wt/vol) paraformaldehyde in PBS at 4° C. overnight and cryoembedded in OCT compound (Sakura Finetek). Samples were cut into 14-μm-thick cryosections. Incubation with primary antibodies was performed overnight at 4° C., followed by 2 washes, and incubation with secondary antibodies for 1 h at room temperature. Nuclei were counterstained with Hoechst 33342 dye. Samples were mounted on glass slides and imaged with a confocal laser microscope (Zeiss 780).
We injected a solution of 0.02% BC (or PBS as a control) into the rete testis of anesthetized adult male mice to test the effects of the drug on adult Sertoli cells. To detect Sertoli cells easily, we used a Sox9-ECFP transgenic mouse (FIG. 5). […] However, four days after treatment, Sertoli cells had disappeared from approximately 30-40% of seminiferous tubules.

donor spermatogenesis = assay: Testicular cell transplantation 7 days post BC treatment; format: in vivo, mouse; conditions: CAG-EGFP pup testicular cells transplanted 7 days post BC
Experimental: 10-15 μl of approximately 1×10^6/ml isolated Sertoli cells or 1×10^8/ml (testicular cells) were injected through the rete testis into the seminiferous tubules of a host mouse on day 4 or day 7 after ablation treatment. A glass needle was back-loaded with the cell suspension and 0.04% Trypan blue to track the efficiency of the injection.
To determine whether the host testes depleted for both Sertoli and germ cells could be used as a scaffold for engraftment of multiple cell types, we performed testicular cell transplantation 7 days post BC treatment (FIG. 7). Nineteen days after testicular cell transplantation from CAG-EGFP pups into a treated host testis, donor Sertoli cells and SSCs colonized. Donor SSCs proliferated with support from donor Sertoli cells, initiated meiosis, and progressed to the spermatocyte stage. EGFP positive leptotene and pachytene spermatocyte were detected. […] Most of these interstitial EGFP bright donor cells were Leydig cells, and some donor PMC colonization was also detected. […] Round spermatids and elongated spermatids generated from donor SSCs with support from donor Sertoli cells were detected in the host testis. In 9/13 testes, donor Sertoli cell and SSC colonization was observed, and full spermatogenesis was detected in 4 of these hosts.

epithelial cells = assay: In vitro epithelial cell ablation in kidney, GI tract, liver and lung tissue culture; format: cell-based, mouse; conditions: 0.03% BC 10 min, cultured 4 days
Experimental: Fragments of the mouse kidney, GI tract, liver and lung were incubated with 0.03% BC for 10 min. After washing several times with PBS, tissues were placed atop 1.5% agarose blocks (214530; Difco), prepared and placed in 6 well tissue culture plates (353046; Falcon) with ˜500 μl of 10% KnockOut Serum Replacement (KSR) (Invitrogen; 10828-028)+DMEM (11995-065; Gibco) to reach halfway up the side of the block. After culture, tissues were washed in PBS and fixed for immunofluorescence. The culture incubator was supplied with 5% (vol/vol) carbon dioxide in air and maintained at 37° C.
We incubated a neonatal kidney, GI tract, liver and lung tissues in 0.03% BC solution for 10 min, washed the tissues several times with PBS and cultured for 4 days at the surface/air interface in wells atop an agarose block (FIG. 9). At the end of that time, the tissues were fixed and stained for immunofluorescence analysis using an antibody against E-CAD (Cadherin1), epithelial marker. […] Although epithelial cells were eliminated in drug treated tissues, LMN (laminin) positive basement membrane and stromal cells which is stained with PDGFRβ were maintained.

[1] = system: bladder epithelial cells, urothelium; assay: BC injection into bladder in vivo; design: species or system mouse
Experimental: 2 months old female mice were anesthetized using Avertin or Isoflurane as anesthetic. Using forceps, the top of the urethral orifice was pinched and pulled up without obstructing the urethra at a ˜45° angle. The catheter tubing end was attachded to a 1 mL syringe, and the tip of the tubing rubbed in medicine mineral jelly. The jelly-topped catheter was carefully inserted into the urethra at a ˜45° angle. The syringe was detached from the catheter, and the mouse's stomach was palpated to produce urine. Using another syringe and catheter, the urine that is produced was aspirated, and emptied into other towel. 20 uL of the BC solution (or PBS) was pipetted directly into the catheter using a pipet tip. It was ensured that the pipet tip contacted the catheter, then the cylinder was fully depressed for ˜3 seconds. The liquid was pushed into the bladder by injecting ˜20 uL of air using a syringe. The catheter was removed and the mouse put back into its cage.
We injected a solution of 0.004%, 0.06% BC into the bladder of anesthetized adult female mice to test the effects of the drug on bladder epithelial cells, urothelium. […] However, six days after treatment, urothelium had disappeared from approximately 80% of 0.06% BC treated bladder, some mesenchymal cells were found on straining with antibodies against PDGFRβ and NG2.

For benzalkonium chloride [BC], the “Sertoli cell depletion based on SOX9 expression” value (Sertoli cells; 0.02% BC into rete testis, day 3) was “Sertoli cell depletion was not detected”, the “seminiferous tubules from which Sertoli cells had disappeared” value (Sertoli cells; 0.02% BC into rete testis, four days after treatment) was 30-40% and the “Caspase3 positive Sertoli cells (apoptosis)” value (Sertoli cells; 0.02% BC, 4 days after treatment) was “did not detect Caspase3 positive Sertoli cells”. The “Leydig cells and endothelial cells (3βHSD, PECAM1)” value (Sertoli cells; 0.02% BC, day 4) was “not obviously affected”, the “PMCs (SMA staining)” value (Sertoli cells; 0.02% BC, day 4) was “PMCs were intact” and the “SSCs in drug affected tubules (STRA8, Hu C/D, c-KIT)” value (Sertoli cells; 0.02% BC, day 4) was “some SSCs were found along the basal lamina”. The “basic tubular structure (anti-Laminin staining)” value (Sertoli cells; 0.02% BC, day 4) was “basic tubular structure was also intact”, the “macrophage invasion and proliferation (F4/80)” value (Sertoli cells; 0.02% BC, day 4) was “many macrophages positive for F4/80 surrounded the affected tubules and some had invaded inside” and the “Sertoli cell elimination (summary)” value (Sertoli cells; 4 days after 0.02% BC treatment) was “Sertoli cells were eliminated”. For the same substance, the “system-wide / side effects after drug injection into rete testis” value (Sertoli cells; mouse, BC injection) was “no apparent system-wide effects; also recorded: no discernable side effects”, the “hosts with full spermatogenesis (of the colonized testes)” value (donor spermatogenesis) was 4 and the “testes with donor Sertoli cell and SSC colonization” value (donor spermatogenesis) was 9/13. The “LMN positive basement membrane and PDGFRβ stromal cells” value (epithelial cells) was “maintained”, the “epithelial cell elimination (E-CAD immunofluorescence)” value (epithelial cells; neonatal kidney, GI tract, liver and lung) was “specifically eliminated epithelial cells” and the inflammation in bladder ([1]; 0.004% BC) was “did not cause inflammation”. The urothelium depletion ([1]; 0.004% BC, day 6) was “urothelium depletion was not detected”, the “macrophage invasion in bladder” value ([1]; 0.03% BC (so in the source)) was “Macrophage invasion were observed” and the “urothelium detachment in the lumen of the bladder” value ([1]; 0.06% BC, day 6) was “urothelium detachment was observed”. For the same substance, the “part of treated bladder from which urothelium had disappeared” value ([1]; 0.06% BC, six days after treatment) was “approximately 80%”.
